Data reported in patent US12427134B2, “Methods of reducing the risk of cardiovascular events in a subject with atrial fibrillation and/or atrial flutter” (priority 2019, dated 2025).

System: hypertriglyceridemic patients with cardiovascular disease or at high risk for cardiovascular disease
Test: REDUCE-IT: post hoc analyses of primary + risk and key secondary + risk composite endpoints (adding atrial fibrillation/flutter and bleeding)
Assay type: in vivo, human
Conditions: ITT

CC/C=C\C/C=C\C/C=C\C/C=C\C/C=C\CCCC(=O)OCC [AMR101, eicosapentaenoic acid ethyl ester]
AFib/AFlutter + MI + Stroke + Cardiac Arrest + Sudden Cardiac Death, Rate/1000 pt yrs: 29.4 /1000 pt yrs
Key Secondary + AFib/AFlutter, Rate/1000 pt yrs: 33.1 /1000 pt yrs
Key Secondary + Serious Bleeding, Rate/1000 pt yrs: 32.1 /1000 pt yrs
Primary + AFib/AFlutter + Serious Bleeding, Rate/1000 pt yrs: 53.5 /1000 pt yrs
Primary + AFib/AFlutter, Rate/1000 pt yrs: 49.0 /1000 pt yrs
Primary + Serious Bleeding, Rate/1000 pt yrs: 48.2 /1000 pt yrs
AFib/AFlutter + MI + Stroke + Cardiac Arrest + Sudden Cardiac Death, subjects with event (N = 4089): 491
AFib/AFlutter + MI + Stroke + Cardiac Arrest + Sudden Cardiac Death, subjects with event (%) (N = 4089): 12.0%
Key Secondary + AFib/AFlutter + Serious Bleeding, subjects with event (N = 4089): 625
Key Secondary + AFib/AFlutter, subjects with event (N = 4089): 552
Key Secondary + AFib/AFlutter, subjects with event (%) (N = 4089): 13.5%
Key Secondary + Serious Bleeding, subjects with event (N = 4089): 539
Key Secondary + Serious Bleeding, subjects with event (%) (N = 4089): 13.2%
Primary + AFib/AFlutter + Serious Bleeding, subjects with event (N = 4089): 850
Primary + AFib/AFlutter + Serious Bleeding, subjects with event (%) (N = 4089): 20.8%
Primary + AFib/AFlutter, subjects with event (N = 4089): 785
Primary + AFib/AFlutter, subjects with event (%) (N = 4089): 19.2%
Primary + Serious Bleeding, subjects with event (N = 4089): 775
Primary + Serious Bleeding, subjects with event (%) (N = 4089): 19.0%
AFib/AFlutter + MI + Stroke + Cardiac Arrest + Sudden Cardiac Death, HR (95% CI) (vs placebo): 0.789 (0.701, 0.889)
Key Secondary + AFib/AFlutter + Serious Bleeding, HR (95% CI) (vs placebo): 0.855 (0.768, 0.952)
Key Secondary + AFib/AFlutter, HR (95% CI) (vs placebo): 0.818 (0.731, 0.916)
Key Secondary + Serious Bleeding, HR (95% CI) (vs placebo): 0.789 (0.704, 0.884)
Primary + AFib/AFlutter + Serious Bleeding, HR (95% CI) (vs placebo): 0.830 (0.757, 0.910)
Primary + AFib/AFlutter, HR (95% CI) (vs placebo): 0.803 (0.731, 0.883)
Primary + Serious Bleeding, HR (95% CI) (vs placebo): 0.785 (0.714, 0.863)
